Experiments:
[1] = molecular target: T1, human CBS (cystathionine-β-synthase) (Homo sapiens, UniProt P35520); test: H2S production by recombinant CBS; assay type: biochemical; conditions: 100 μM compound; H2S production as % of control (100%)
T1 construct: GST (N); made in house; host or cells: E. coli BL21(DE3) Codon Plus
T1 sequence (P35520 1-551): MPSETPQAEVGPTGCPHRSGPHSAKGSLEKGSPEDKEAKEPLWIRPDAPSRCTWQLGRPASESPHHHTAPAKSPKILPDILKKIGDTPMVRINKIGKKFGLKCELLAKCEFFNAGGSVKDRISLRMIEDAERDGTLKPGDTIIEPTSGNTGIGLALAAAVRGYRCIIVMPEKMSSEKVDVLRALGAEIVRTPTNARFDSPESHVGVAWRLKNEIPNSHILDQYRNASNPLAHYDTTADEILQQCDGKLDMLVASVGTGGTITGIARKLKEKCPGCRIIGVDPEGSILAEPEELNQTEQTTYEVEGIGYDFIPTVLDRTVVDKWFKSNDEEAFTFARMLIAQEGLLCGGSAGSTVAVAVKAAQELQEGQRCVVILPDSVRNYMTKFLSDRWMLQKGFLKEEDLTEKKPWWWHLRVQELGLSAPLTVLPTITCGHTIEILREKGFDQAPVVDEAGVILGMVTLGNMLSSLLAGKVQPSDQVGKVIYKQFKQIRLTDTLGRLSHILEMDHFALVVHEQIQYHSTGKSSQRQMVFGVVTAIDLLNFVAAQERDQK
Method: Recombinant human CBS protein expression and purification. The expression and purification of human CBS was performed as described previously (Asimakopoulou et al. 2013, Br J Pharmacol. 169(4):922-32). Briefly, E. Coli BL21(DE3) Codon Plus cells (Stratagene, La Jolla, Calif., USA) containing the expression vector pGEX-Kg/GST-CBS were grown at 37° C. and 180 rpm in LuriaBertani (LB) broth medium containing 100 μg/ml ampicillin to an absorption of 0.6-0.8 at 600 nm. Protein expression was induced by addition of 0.1 mM IPTG (isopropyl-b-D-thiogalactopyranoside) and cells were further incubated at 30° C. overnight. The bacteria were harvested and sonicated in lysis buffer PBS (140 mM NaCl, 2.7 mM KCl, 10 mM Na2HPO4, 1.8 mM KH2PO4, pH 7.8) containing a protease inhibitors cocktail (Sigma). The protein lysate was loaded onto a GSTrap FF 1 ml affinity column (Amersham Biosciences) and the GST-CBS recombinant protein was eluted with the elution buffer (50 mM Tris-HCl, 10 mM reduced glutathione, pH 8.0) and then dialyzed and concentrated in 10 mM sodium phosphate buffer (pH 8.2) and DTT (1 mM).
Measurement of H2S production by recombinant CBS. The measurement of H2S production by recombinant CBS enzyme was performed as described (Asimakopoulou et al. 2013, Br J Pharmacol. 169(4):922-32). Briefly, each test consisted of a 100 μl reaction mixture in 50 mM sodium phosphate buffer pH 8.2 containing 1 μg of the purified human CBS enzyme, 0.01 mM pyridoxal-5′-phosphate (PLP), 10 mM L-cysteine and 0.5 mM homocysteine. […] The reaction was initiated by transferring the Eppendorf tubes from ice to a 37° C. shaking water bath. After 60 minutes of incubation at 37° C., the reaction was terminated by adding 1% ZnAc followed by 10% trichloroacetic acid. Subsequently, N,N-dimethylphenylendiamine sulfate (20 mM in 7.2 M HCl) and FeCl3 (30 mM in 1.2 M HCl) were added and the optical absorbance of the solutions was measured at 650 nm.

[2] = Aqueous solubility by HPLC analysis method; assay type: physicochemical; conditions: in the form of HCl salt
[3] = tested on: transformed PSC (human pancreatic stellate cells); test: PSC proliferation, AlamarBlue Cell Viability Assay; assay type: cell-based; conditions: for Inhibitory Effect (%) on PSC proliferation / inhibition at 10 µM: 10 μM; for Inhibitory Effect (%) on PSC proliferation / inhibition at 5 µM / inhibition at 10 µM / inhibition at 20 µM: mean of at least three independent experiments, NE = No effect; for inhibition at 5 µM / inhibition at 10 µM / inhibition at 20 µM: Homo sapiens, read-out: Inhibitory Effect (%) on PSC proliferation; for Antiproliferative effect on PSC, result in words: transformed PSC, AlamarBlue
Method: The calculated lipophilicity (cLogP) and topological polar surface area (tPSA) values of synthesized analogues are listed in Table 1. […] AlamarBlue is a non-toxic reagent that is converted to a highly fluorescent end product by viable cells.
Under an IRB-approved tissue protocol, discarded human resected pancreatic tissue (500 mm^3) was attained fresh from the operating room at the University of Texas Medical Branch. The tissue was minced and plated on a collagen-coated flask (15 μg/mL, Invitrogen) with DMEM (VWR; Radnor, Pa.) supplemented with penicillin 200 U/mL, streptomycin 200 μg/mL, amphotericin B 0.25 μg/mL and gentimicin 50 μg/mL (Invitrogen, Carlsbad Calif.), 10% fetal bovine serum (Lonza, Walkersville, Md.), 1% insulin-transferrin, selenium-ethanolamine (Gibco, Grand Island, N.Y.), and 1% non-essential amino acids (Sigma-Aldrich, St. Louis, Mo.). The human PSC were isolated by the outgrowth method.^41-43 The purity of PSC culture was confirmed by immunohistochemical staining for vimentin, α-smooth muscle actin, glial fibrillar acidic protein, or Oil red O staining. Primary PSC were transformed and immortalized for use in experiments using lentiviral vectors containing SV40 Large T antigen and human telomerase (plasmid #12245 and 12246; Addgene, Cambridge, Mass.). Cultures were maintained in DMEM with 10% FBS, at 37° C. in a humidified 95% O2/5% CO2 atmosphere.
Cell proliferation assay. Transformed PSC (3×10^3) were plated in 96-well plates, in sextuplicate. […] AlamarBlue reagent (10% sample volume, DAL1025) was added to each well per Invitrogen's protocol. Fluorescence was recorded using excitation/emission wavelengths of 544/590 nm and the SpectraMax M2 Microplate Reader (Molecular Devices, Sunnyvale Calif.).
Statistical analysis. Dose-response curves were generated by plotting fluorescence or absorbance versus log (compound concentration). A best-fit curve was created using nonlinear regression, and the IC50 or EC50 determined from the graph (GraphPad Prism 5; GraphPad Software Inc., La Jolla, Calif.). To analyze continuos variables, unpaired student t-tests and one-way ANOVA with Tukey-Kramer multiple comparisons post-test (GraphPad Prism 5). Significance was set at p<0.05.

| melting point [°C] | activity at 100 µM [1] [%] | Aqueous solubility compared with apigenin, result in words [2] | Aqueous solubility, saturated concentration [2] [mg/mL] | Structure (SMILES) | Inhibitory Effect (%) on PSC proliferation [3] [%] | inhibition at 5 µM [3] [%] | inhibition at 10 µM [3] [%] | inhibition at 20 µM [3] [%] | Antiproliferative effect on PSC, result in words [3] |
| --- | --- | --- | --- | --- | --- | --- | --- | --- | --- |
| 79 to 80 | 129 | significantly improved solubility | 17.4 | COc1cc(OC)c2c(=O)cc(-c3ccc(OCCN4CCCCC4)cc3)oc2c1 [Compound 14, 5,7-Dimethoxy-2-(4-(2-piperidin-1-yl-ethoxy)phenyl)-chromen-4-one] | 64 | 45 | 64 | 97 | potent antiproliferative effects |
| 114 to 115 | 131 | significantly improved solubility | 13.7 | COc1cc(OC)c2c(=O)cc(-c3ccc(OCCN4CCCC4)cc3)oc2c1 [Compound 16, 5,7-Dimethoxy-2-(4-(2-pyrrolidin-1-yl-ethoxy)phenyl)-chromen-4-one] | 66 | 48 | 66 | 98 | potent antiproliferative effects |
| 203 to 204 | 104 | – | – | COc1cc(OC)c2c(=O)cc(-c3ccc(OCC(O)CO)cc3)oc2c1 (centres unmarked) [Compound 28, 2-(4-(2,3-Dihydroxypropoxy)phenyl)-5,7-dimethoxy-chromen-4-one] | – | – | 11 | 16 | dramatic loss of activities |
| 209 to 210 | 107 | – | – | COc1cc(OC)c2c(=O)cc(-c3ccc(-c4ccc(F)nc4)cc3)oc2c1 [Compound 33, 2-(4-(6-Fluoropyridin-3-yl)phenyl)-5,7-dimethoxy-chromen-4-one] | – | – | 6 | 19 | substantial loss of the activity |
| 159 to 160 | 112 | – | – | COc1cc(OC)c2c(=O)cc(-c3ccc(NCCN(C)C)cc3)oc2c1 [Compound 36, 2-(4-(2-Dimethylaminoethylamino)phenyl)-5,7-dimethoxy-chromen-4-one] | – | 30 | 60 | 84 | – |
| 148 to 149 | 109 | – | – | COc1cc(OC)c2c(=O)cc(-c3ccc(NCCN4CCCC4)cc3)oc2c1 [Compound 37] | – | 21 | 51 | 80 | – |
| 127 to 129 | 109 | – | – | COc1cc(O)c2c(=O)cc(-c3ccc(OCCN4CCCC4)cc3)oc2c1 [Compound 38] | – | – | 39 | 99 | – |
| 228 to 229 | 99.6 | – | – | O=c1cc(-c2ccc(OCCN3CCCC3)cc2)oc2cc(O)cc(O)c12 [Compound 39] | – | 2 | 71 | 90 | – |

— patent publication US9868715B2 (THE BOARD OF REGENTS OF THE UNIVERSITY OF TEXAS SYSTEMS, priority 2014, dated 2018)
